Earlier results in US9340307B2, “Stable laquinimod preparations” (priority 2007, dated 2016).

Test system: acute experimental autoimmune encephalomyelitis (aEAE) model
Settings: U.S. Pat. No. 6,077,851

CCN(C(=O)c1c(O)c2c(Cl)cccc2n(C)c1=O)c1ccccc1 [Laquinimod, N-ethyl-N-phenyl-1,2-dihydro-4-hydroxy-5-chloro-1-methyl-2-oxoquinoline-3-carboxamide]
effectiveness in the aEAE model: effective
